Laboratory results taken from patent publication US3976673A, “4-Cyclopropylmethyleneoxy-3-chlorophenylacetic acid and salts thereof” (priority 1974, dated 1976).
“Also recorded” adds a separate entry of the source.

Experiments:
[1] = system: pain threshold of rat's paw made edematous by yeast; assay: Analgesic activity, Randall and Selitto (pain threshold of edematous rat paw); format: in vivo, male Wistar rats; settings: vs basal values
Method: It was evaluated according to the following methods: a. Randall and Selitto The pressure to be exerted on a rat's paw previously made edematous by injecting into the plantar zone 0.1 ml of 20% suspension of yeast until appearance of painful reaction was measured in mmHg. The pain threshold was determined 30 minutes before and 30, 60, 90 and 120 minutes after the administration of the substances under test. 10 Male Wistar rats weighing 170-190 g were used for each dosage level and the corresponding average values considered for each dose. The percentage increase of the pain threshold compared to the basal values is taken as the index of the analgesic activity.

[2] = Toxicity / therapeutical index (general statement); settings: statement in words
[3] = system: abdominal stretching induced by phenylbenzoquinone; assay: Analgesic activity, Siegmund (phenylbenzoquinone abdominal stretching); format: in vivo, Swiss male mice; settings: salts' dosage expressed as acid, vs water controls
Method: It was evaluated according to the following methods:
The antagonism towards the abdominal stretching induced by phenylbenzoquinone was evaluated. Swiss male mice weighing 19-21 g were treated orally with the compounds under examination 30 minutes before the endoperitoneal administration of 0.25 ml of a […] aqueous phenylbenzoquinone solution. The animals were kept under observation for 30 minutes after treatment with phenylbenzoquinone and the abdominal stretchings for each animal were counted. 10 Mice for each dosage level were used and the corresponding average values considered. The percentage decrease of the number of abdominal stretchings in the animals treated with the substances under test compared with the controls treated with water was taken as the index of the analgesic activity.

[4] = system: hyperpyressia induced by yeast; assay: Anti-piretic activity, hyperpyressia induced by yeast; format: in vivo, albino rabbits
Method: (§1) This was evaluated considering 2 kinds of hyperpyressia. Hyperpyressia induced by:
To albino rabbits, 1 ml/kg of a 0.2% aqueous suspension of yeast were injected intravenously. The rectal temperature was teken at the beginning of the experiment and 60 minutes after the treatment with the pyrogen agent. Immediately after taking the temperature the compounds under test were administered orally to the animals and the rectal temperatures thereof were subsequently measured after 30, 60, 120 and 180 minutes. 10 Animals were treated for each dose level. The difference between the temperatures taken in the animals treated and in the controls is and index of the antipyretic activity. The results obtained by performing the two methods cited above for the determination of the antipyretic activity are listed in Tables 4 and 5 respectively and evaluated as average value for each dose.

[5] = system: edema induced by carrageenin; assay: Anti-inflammatory activity, Winter's method (carrageenin edema); format: in vivo, male rats; settings: 3 hours after carrageenin
Method: This was determined according to Winter's method which evaluates the inhibiting effect on the edema induced by carrageenin.
Male rats weighing 170-190 g were treated with the compounds under test and after 60 minutes 0.005 ml of a 1% aqueous solution of carrageenin were injected into the plantar zone of a hind paw of each animal. The volume of the treated paw was determined immediately after the injection and 3 hours later.
10 Animals were used for each dosage level. The increase difference in the volume of the paw of animals treated compared with the controls represents the index of the anti-inflammatory activity. The results obtained, expressed as percentage inhibition of the volume of the edema compared to the controls and evaluated as average value for each dose are listed in Table 3.

[6] = Chemical stability (general statement); format: physicochemical; settings: statement in words
[7] = system: hyperpyressia induced by bactopeptone; assay: Anti-piretic activity, hyperpyressia induced by bactopeptone; format: in vivo, Wistar male rats
Method: as §1
1 Milliliter of 5% aqueous solution of bactopeptone preincubated for 18 hours at 37°C were injected subcutaneously in Wistar male rats weighing 170-190 g. 4 Hours after treatment with the pyrogen, the animals were divided into groups of ten animals each and treated orally with the substances under examination. The rectal temperature was taken at the beginning of the test, 4 hours after the injection of the pyrogen agent and subsequently 1, 2 and 3 hours after the administration of the substances under test. The difference between the temperature taken in the treated animals and in controls is an index of the anti-pyretic activity.

[8] = 25 mg/kg i.p., salts' dosage expressed as acid
[9] = 25 mg/kg os, salts' dosage expressed as acid
[10] = 50 mg/kg i.p., salts' dosage expressed as acid
[11] = 50 mg/kg os, salts' dosage expressed as acid
[12] = 15 mg/kg os, salts' dosage expressed as acid

With `O=C(O)Cc1ccc(OCC2CC2)c(Cl)c1` [4-cyclopropylmethyleneoxy-3-chlorophenylacetic acid] the “% Increase of pain threshold” value [1, 8] was 27%, the “% Increase of pain threshold” value [1, 9] was 44% and the “% Increase of pain threshold” value [1, 10] was 105%. For the same compound, the “% Increase of pain threshold” value [1, 11] was 120%, the “% Increase of pain threshold” value ([1]; 100 mg/kg i.p.) was 176% and the “% Increase of pain threshold” value ([1]; 100 mg/kg os) was 180%. For the same compound, the toxicity [2] was “low toxicity”, the “% Decrease in number of stretchings” value ([3]; 25 mg/kg os) was 51% and the “% Decrease in number of stretchings” value ([3]; 50 mg/kg os) was 77%. For the same compound, the “% Decrease in number of stretchings” value ([3]; 100 mg/kg os) was 98%, the “Rectal temperature, 30 mins. after treatment” value ([4]; 5 mg/kg per os) was 40.17 °C and the “Rectal temperature, 60 mins. after treatment” value ([4]; 5 mg/kg per os) was 40.15 °C. For the same compound, the “Rectal temperature, 120 mins. after treatment” value ([4]; 5 mg/kg per os) was 40.55 °C, the “Rectal temperature, 180 mins. after treatment” value ([4]; 5 mg/kg per os) was 40.02 °C and the “Rectal temperature, 30 mins. after treatment” value ([4]; 10 mg/kg per os) was 40.05 °C. For the same compound, the “Rectal temperature, 60 mins. after treatment” value ([4]; 10 mg/kg per os) was 39.90 °C, the “Rectal temperature, 120 mins. after treatment” value ([4]; 10 mg/kg per os) was 39.48 °C and the “Rectal temperature, 180 mins. after treatment” value ([4]; 10 mg/kg per os) was 39.32 °C. The “Rectal temperature, 30 mins. after treatment” value ([4]; 25 mg/kg per os) was 40.65 °C, the “Rectal temperature, 60 mins. after treatment” value ([4]; 25 mg/kg per os) was 39.95 °C and the “Rectal temperature, 120 mins. after treatment” value ([4]; 25 mg/kg per os) was 39.20 °C. For the same compound, the “Rectal temperature, 180 mins. after treatment” value ([4]; 25 mg/kg per os) was 39.05 °C, the “% Inhibition of oedema” value ([5]; 2.5 mg/kg i.p.) was 15% and the “% Inhibition of oedema” value ([5]; 5 mg/kg i.p., salts' dosage expressed as acid) was 37%. For the same compound, the “% Inhibition of oedema” value ([5]; 10 mg/kg os, salts' dosage expressed as acid) was 31%, the “% Inhibition of oedema” value [5, 8] was 55% and the “% Inhibition of oedema” value [5, 10] was 61%. The “% Inhibition of oedema” value [5, 11] was 65%, the “stability of chemical structure” value [6] was “noticeable stability; also recorded: chemically stable” and the “Rectal temperature, 1 hour after treatment” value (“Rectal temperature, 1 hour” below) ([7]; 6 mg/kg os) was 38.7 °C. For the same compound, the “Rectal temperature, 2 hours after treatment” value (from here on “Rectal temperature, 2 hours”) ([7]; 6 mg/kg os) was 39.3 °C, the “Rectal temperature, 3 hours after treatment” value (“Rectal temperature, 3 hours” below) ([7]; 6 mg/kg os) was 39.1 °C and the “Rectal temperature, 1 hour” value [7, 12] was 37.7 °C. For the same compound, the “Rectal temperature, 2 hours” value [7, 12] was 38.0 °C, the “Rectal temperature, 3 hours” value [7, 12] was 37.6 °C and the “Rectal temperature, 1 hour” value [7, 9] was 37.3 °C. The “Rectal temperature, 2 hours” value [7, 9] was 37.3 °C and the “Rectal temperature, 3 hours” value [7, 9] was 37.1 °C.
